Experimental data: PMC4000009, “Ardisia crispa roots inhibit cyclooxygenase and suppress angiogenesis” (BMC Complementary and Alternative Medicine, 2014)

Key:
COX-1 = target: T1, COX-1 (Ovis aries, UniProt P05979); assay: Colorimetric COX (ovine) inhibitor screening assay, COX-1; assay type: biochemical; conditions: n = 3
T1 construct: purchased Cayman 760111
T1 sequence (P05979 25-600): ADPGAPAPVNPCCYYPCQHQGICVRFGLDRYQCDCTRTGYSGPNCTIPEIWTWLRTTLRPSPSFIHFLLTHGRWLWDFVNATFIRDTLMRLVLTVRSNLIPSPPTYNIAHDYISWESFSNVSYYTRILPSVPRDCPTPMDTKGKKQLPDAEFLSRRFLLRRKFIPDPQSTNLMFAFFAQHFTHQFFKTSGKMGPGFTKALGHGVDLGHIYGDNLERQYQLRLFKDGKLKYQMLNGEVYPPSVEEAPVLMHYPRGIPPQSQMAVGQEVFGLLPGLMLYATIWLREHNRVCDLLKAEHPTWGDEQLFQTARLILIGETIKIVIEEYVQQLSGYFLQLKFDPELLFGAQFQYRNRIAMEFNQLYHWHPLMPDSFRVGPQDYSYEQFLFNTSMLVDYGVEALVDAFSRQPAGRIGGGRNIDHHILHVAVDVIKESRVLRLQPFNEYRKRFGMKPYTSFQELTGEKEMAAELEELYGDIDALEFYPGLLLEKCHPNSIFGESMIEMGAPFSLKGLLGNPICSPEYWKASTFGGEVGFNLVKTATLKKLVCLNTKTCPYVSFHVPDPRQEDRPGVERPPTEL
Protocol: (§1) Cyclooxygenase activity assay was performed according to Yang et al., with slight modification. […] The assay was conducted by monitoring the appearance of oxidized N, N, N’, N’- tetramethyl-p-phenediamine (TMPD) at […]. […] The plate was shaken for a few seconds and incubated for 5 min at 25°C. 20 μl of the colorimetric substrate solution (TMPD) was added to all of the wells. 20 μl of arachidonic acid was added to all the wells. The plate was shaken for a few seconds and incubated for 5 min at 25°C. The absorbance was measured at 590 nm using a microplate reader. Average absorbance was calculated for all the samples (n = 3) in order to determine the percentage of inhibition. The calculation of inhibitory percentage is as portrayed below:
(§2) %inhibition=100%initialactivity‒inhibitorwells/100%initialactivity×100
(§3) In mouse sponge implantation assay, statistical analysis was performed using SPSS version 16. One-way Analysis of Variance (ANOVA) with post-hoc test of Least Significant Difference (LSD) were utilised with P < 0.05 was considered to be statistically significant. The results were reported as mean ± SEM. For in vitro studies, average of the results obtained was determined in order to construct a graph, whereby IC50 of each groups were identified, respectively. IC50 was calculated using GraphPad Prism 5 software. Data were reported as mean ± SEM.

COX-2 = target: T2, COX-2 (Ovis aries, UniProt P79208); assay: Colorimetric COX (ovine) inhibitor screening assay, COX-2; assay type: biochemical; conditions: read-out: Percentage of COX inhibition (%) COX-2
T2 construct: purchased Cayman 760111
T2 sequence (P79208 17-603): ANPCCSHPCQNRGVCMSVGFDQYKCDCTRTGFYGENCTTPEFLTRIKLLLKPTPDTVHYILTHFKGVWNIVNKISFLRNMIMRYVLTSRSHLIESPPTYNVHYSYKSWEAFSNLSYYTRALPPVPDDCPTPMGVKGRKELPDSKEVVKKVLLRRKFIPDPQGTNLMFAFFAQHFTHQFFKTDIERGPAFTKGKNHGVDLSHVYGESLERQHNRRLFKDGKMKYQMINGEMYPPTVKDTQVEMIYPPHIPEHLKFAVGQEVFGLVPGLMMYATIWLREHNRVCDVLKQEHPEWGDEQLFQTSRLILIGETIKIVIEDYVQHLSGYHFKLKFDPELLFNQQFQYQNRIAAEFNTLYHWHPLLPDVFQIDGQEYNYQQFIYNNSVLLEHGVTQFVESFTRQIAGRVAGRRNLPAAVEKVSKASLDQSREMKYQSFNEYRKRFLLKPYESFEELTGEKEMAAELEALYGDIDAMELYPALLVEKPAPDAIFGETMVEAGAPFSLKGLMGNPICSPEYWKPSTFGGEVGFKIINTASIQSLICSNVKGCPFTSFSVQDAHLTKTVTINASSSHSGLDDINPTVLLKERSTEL
Protocol: as §1, §2, §3

[1] = target: T3, Soybean lipoxygenase type I-B (Glycine max, UniProt P08170); assay: Soy lipoxygenase inhibitory assay; assay type: biochemical
T3 construct: purchased Sigma Aldrich
T3 sequence (P08170 1-839): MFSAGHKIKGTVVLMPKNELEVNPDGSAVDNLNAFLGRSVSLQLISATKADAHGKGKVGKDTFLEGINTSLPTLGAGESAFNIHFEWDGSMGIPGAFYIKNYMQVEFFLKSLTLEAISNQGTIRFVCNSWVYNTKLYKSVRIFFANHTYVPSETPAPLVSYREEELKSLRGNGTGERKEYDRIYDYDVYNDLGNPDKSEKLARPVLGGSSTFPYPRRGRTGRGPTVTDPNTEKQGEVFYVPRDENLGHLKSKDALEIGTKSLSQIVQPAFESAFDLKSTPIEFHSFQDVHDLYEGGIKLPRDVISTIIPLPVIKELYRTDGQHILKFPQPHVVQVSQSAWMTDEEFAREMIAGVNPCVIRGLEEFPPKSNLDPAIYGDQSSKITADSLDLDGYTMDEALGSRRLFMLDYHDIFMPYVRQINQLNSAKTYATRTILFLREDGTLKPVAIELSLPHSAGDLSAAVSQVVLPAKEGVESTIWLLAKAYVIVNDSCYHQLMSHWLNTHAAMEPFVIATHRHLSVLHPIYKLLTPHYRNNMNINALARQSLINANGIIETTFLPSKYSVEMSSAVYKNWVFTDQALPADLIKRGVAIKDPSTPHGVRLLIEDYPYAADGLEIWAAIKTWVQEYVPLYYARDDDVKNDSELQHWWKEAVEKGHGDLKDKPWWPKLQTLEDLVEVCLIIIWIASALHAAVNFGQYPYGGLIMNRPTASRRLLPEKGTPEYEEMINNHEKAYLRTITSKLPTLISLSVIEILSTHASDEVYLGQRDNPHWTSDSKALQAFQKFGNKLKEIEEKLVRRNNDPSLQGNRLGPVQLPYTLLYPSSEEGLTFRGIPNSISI
Protocol: Soy lipoxygenase inhibitory assay was performed according to the method proposed by Azhar-Ul-Haq et al.. Rutin was used as positive control. 160 μl of 100 mM sodium phosphate buffer (pH8.0), 10 μl of ACRH and QRF were dissolved in ethanol in different concentrations (200 μg/mL, 100 μg/mL, 50 μg/mL, 25 μg/mL, and 12.5 μg/mL) and 20 μl of lipoxygenase solution were mixed in the well and incubated for 10 mins at room temperature. The reaction was then initiated by adding 10 μl of linoleic solution and the absorbance was determined at 234 nm after 6 minutes. All concentrations were performed in triplicate. The IC50 value was then calculated.
as §3

[2] = system: VEGF-induced blood vessel formation; assay: Mouse sponge implantation assay (VEGF-impregnated gelatin sponge, mean vascular density); assay type: in vivo; conditions: 100 ng treatment in VEGF sponge, 14 days; relative to VEGF group
Protocol: Prior to experimentation, absorbable gelatin sponge was cut (5 mm × 8 mm) and hydrated in sterile PBS overnight at 4°C. […] The sponges were allowed to solidify at room temperature for one hour before commencement of the experiment. Mice were anesthetized with Avertin (10 mL/kg) prior to experimentation. Hardened gel piece was inserted into incised subcutaneous pocket created laterally. The animals were allowed to recuperate for 14 days. After that, the animals were euthanized and the gel piece was harvested and rinsed with normal saline.
The sponge samples were fixed in 10% formalin (v/v) for 7 days and subjected to histopathological analysis. The number of vessels was counted in 15 consecutive fields using a 20X objective and the mean MVD was calculated [19].
In mouse sponge implantation assay, statistical analysis was performed using SPSS version 16. One-way Analysis of Variance (ANOVA) with post-hoc test of Least Significant Difference (LSD) were utilised with P < 0.05 was considered to be statistically significant. The results were reported as mean ± SEM. […] Data were reported as mean ± SEM.

SMILES	Percentage of COX inhibition (%) COX-1 (COX-1; 12.5 μg/ml) [%]	Percentage of COX inhibition (%) COX-1 (COX-1; 25 μg/ml) [%]	Percentage of COX inhibition (%) COX-1 (COX-1; 50 μg/ml) [%]	Percentage of COX inhibition (%) COX-1 (COX-1; 100 μg/ml) [%]	Percentage of COX inhibition (%) COX-1 (COX-1; 200 μg/ml) [%]	inhibition at 12.5 µg/mL (COX-2) [%]	inhibition at 25 µg/mL (COX-2) [%]	inhibition at 50 µg/mL (COX-2) [%]	inhibition at 100 µg/mL (COX-2) [%]	inhibition at 200 µg/mL (COX-2) [%]	IC50 [1] [µM]	% inhibition (of MVD) [2] [%]
CC(=O)Oc1ccccc1C(=O)O [Aspirin]	27.778 ± 0.505	36.027 ± 1.347	37.879 ± 0.842	40.067 ± 1.347	46.465 ± 0.505	33.9 ± 1.07	51.38 ± 0.154	54.29 ± 0.307	59.05 ± 0.153	62.42 ± 0.154	763	
C[C@@H]1O[C@@H](OC[C@H]2O[C@@H](Oc3c(-c4ccc(O)c(O)c4)oc4cc(O)cc(O)c4c3=O)[C@H](O)[C@@H](O)[C@@H]2O)[C@H](O)[C@H](O)[C@H]1O [Rutin]											72.7	
CC1(C)Cc2c(-c3ccccc3)c(-c3ccc(Cl)cc3)c(CC(=O)O)n2C1 [licofelone]												67.14
